Results: patent US9663573B2, “Methods of treating liver conditions using Notch2 antagonists” (GENENTECH, INC., priority 2011, dated 2017)

How the values were obtained:
[1] = tested on: liver progenitor cells (oval cells); experiment: Primary oval cell culture on Sw-3T3 feeder fibroblasts: colony formation and proliferation; format: cell-based, mouse
From the text: To elucidate the role of Notch signaling in liver regeneration, an in vitro culture system was developed. Cell cultures were established by culturing primary oval cells on Sw-3T3 fibroblasts (ATCC), arrested with Mitomycin C (Sigma), in High Glucose Dulbecco's Modified Eagle Medium (DMEM; Invitrogen) supplemented with 15% Fetal Calf Serum (Sigma), non-essential amino acids (Invitrogen), Glutamax (Invitrogen), and ITS (Invitrogen).

Notch2 = biological target: T1, Notch2 (Mus musculus, UniProt O35516); experiment: Notch2 signaling in cultured oval cells (activated Notch2 ICD by Western blot, Hes1 expression); format: cell-based; details: FIG. 2H
T1 construct: Cell cultures were established by culturing primary oval cells on Sw-3T3 fibroblasts; endogenous in cells; host or cells: primary mouse liver oval (progenitor) cells
T1 sequence (O35516 26-2473): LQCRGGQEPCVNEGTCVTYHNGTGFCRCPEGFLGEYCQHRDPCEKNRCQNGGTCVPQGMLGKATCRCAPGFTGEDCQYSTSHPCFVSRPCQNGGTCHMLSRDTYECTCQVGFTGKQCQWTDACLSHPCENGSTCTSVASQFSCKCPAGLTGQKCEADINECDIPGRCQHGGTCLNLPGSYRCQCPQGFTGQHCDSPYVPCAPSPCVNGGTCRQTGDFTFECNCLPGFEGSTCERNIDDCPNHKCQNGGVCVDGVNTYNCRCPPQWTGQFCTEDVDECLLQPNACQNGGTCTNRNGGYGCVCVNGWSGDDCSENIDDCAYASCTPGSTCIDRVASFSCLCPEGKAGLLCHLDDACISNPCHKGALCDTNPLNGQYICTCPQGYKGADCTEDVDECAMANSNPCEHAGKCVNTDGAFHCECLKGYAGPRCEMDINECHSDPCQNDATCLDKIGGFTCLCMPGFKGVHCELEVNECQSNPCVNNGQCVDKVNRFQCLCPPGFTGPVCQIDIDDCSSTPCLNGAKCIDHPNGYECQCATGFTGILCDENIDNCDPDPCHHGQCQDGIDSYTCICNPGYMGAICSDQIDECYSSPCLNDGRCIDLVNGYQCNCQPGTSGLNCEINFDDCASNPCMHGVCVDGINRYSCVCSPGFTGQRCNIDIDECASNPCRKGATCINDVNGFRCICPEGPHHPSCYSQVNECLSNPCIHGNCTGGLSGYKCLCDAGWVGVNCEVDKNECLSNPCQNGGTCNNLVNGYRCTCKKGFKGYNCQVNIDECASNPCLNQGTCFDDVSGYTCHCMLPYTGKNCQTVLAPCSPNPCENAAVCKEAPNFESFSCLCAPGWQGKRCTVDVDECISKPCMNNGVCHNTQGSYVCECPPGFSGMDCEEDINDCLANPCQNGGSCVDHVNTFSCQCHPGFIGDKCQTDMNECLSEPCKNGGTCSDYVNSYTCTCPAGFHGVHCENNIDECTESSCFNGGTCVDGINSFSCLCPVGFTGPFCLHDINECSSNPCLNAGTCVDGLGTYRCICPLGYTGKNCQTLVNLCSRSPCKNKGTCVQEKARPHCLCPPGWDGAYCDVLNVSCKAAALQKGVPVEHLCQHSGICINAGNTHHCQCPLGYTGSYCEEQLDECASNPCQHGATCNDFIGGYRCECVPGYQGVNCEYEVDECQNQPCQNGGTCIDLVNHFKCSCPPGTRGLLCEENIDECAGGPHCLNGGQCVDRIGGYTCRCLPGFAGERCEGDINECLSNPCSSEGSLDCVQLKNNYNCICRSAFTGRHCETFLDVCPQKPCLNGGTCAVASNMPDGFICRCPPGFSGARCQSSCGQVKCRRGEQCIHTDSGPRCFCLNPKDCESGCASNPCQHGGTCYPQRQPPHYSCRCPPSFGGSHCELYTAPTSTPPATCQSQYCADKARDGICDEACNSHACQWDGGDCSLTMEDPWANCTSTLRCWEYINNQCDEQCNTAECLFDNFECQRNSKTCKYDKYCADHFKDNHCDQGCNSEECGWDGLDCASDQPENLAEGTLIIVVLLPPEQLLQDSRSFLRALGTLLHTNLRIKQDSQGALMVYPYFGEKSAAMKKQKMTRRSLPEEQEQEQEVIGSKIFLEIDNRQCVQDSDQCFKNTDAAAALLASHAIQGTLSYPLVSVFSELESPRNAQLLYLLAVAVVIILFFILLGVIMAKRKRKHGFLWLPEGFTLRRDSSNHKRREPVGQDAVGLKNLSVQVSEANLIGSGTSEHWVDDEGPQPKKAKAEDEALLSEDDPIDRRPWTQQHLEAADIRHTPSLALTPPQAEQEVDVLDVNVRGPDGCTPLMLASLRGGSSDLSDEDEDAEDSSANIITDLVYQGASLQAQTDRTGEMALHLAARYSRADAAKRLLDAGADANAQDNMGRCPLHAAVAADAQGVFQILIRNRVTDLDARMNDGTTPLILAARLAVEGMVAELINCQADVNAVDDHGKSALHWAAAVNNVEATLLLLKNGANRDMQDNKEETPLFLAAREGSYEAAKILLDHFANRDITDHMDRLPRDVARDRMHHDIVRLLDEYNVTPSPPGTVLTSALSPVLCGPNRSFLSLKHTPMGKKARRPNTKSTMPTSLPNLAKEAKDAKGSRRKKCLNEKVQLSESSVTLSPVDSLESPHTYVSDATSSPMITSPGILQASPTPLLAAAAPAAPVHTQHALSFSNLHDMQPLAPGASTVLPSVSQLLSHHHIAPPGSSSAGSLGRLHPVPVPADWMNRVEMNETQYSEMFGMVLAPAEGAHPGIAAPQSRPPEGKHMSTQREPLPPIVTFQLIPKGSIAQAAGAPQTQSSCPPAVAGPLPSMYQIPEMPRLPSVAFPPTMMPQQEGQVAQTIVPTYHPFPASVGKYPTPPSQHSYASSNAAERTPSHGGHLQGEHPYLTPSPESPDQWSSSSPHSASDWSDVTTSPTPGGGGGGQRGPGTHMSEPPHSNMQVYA
From the text: The anti-activated Notch2 antibody (clone 40-2-7) was generated against the peptide VIMAKRKRKHGSLW, corresponding to amino acids 1697-1710 of the human Notch2 protein sequence (SEQ ID NO:73), coupled to KLH (YenZym Custom Antibodies, LLC). Splenocytes from a rabbit producing an antibody with the appropriate specificity were used to generate hybridomas (Epitomics, Inc.). Clone 40-2-7 was identified by screening the resulting rabbit monoclonal antibodies by immunoblotting and immunohistochemistry. This antibody recognizes both human (FIG. 7B, left panel) and mouse (FIG. 7B, right panel) active Notch2 at endogenous levels.
Progenitors cultured in the culture system maintained growth (FIG. 2A) and formed colonies consisting of small, tightly packed cells with a high nuclear-cytoplasmic ratio and a distinct raised edge (FIG. 2A, left panel). The cells within these colonies were uniformly EpCAM positive (FIG. 2A, right panel). […] Activated Notch2 was detected by Western blot analysis using a rabbit monoclonal antibody raised against the S3 cleaved form of the human Notch2 protein (FIG. 7B). […]
Notch2 signaling was active in cultured oval cells, as transcriptionally active Notch2 intracellular domain (ICD) could be detected using an antibody specific to the γ-secretase cleaved form of this receptor (FIG. 2H). […]

## C[C@H](NC(=O)Cc1cc(F)cc(F)c1)C(=O)N[C@H](C(=O)OC(C)(C)C)c1ccccc1 [DAPT, N—[N-(3,5-difluorophenacetyl)-1-alanyl]-S-phenylglycine t-butyl ester]
[1]; FIG. 2D
  progenitor cell proliferation: small increase
[1]; plated CD45 negative, non-parenchymal cells, without DAPT approximately 1 colony per 100,000
  colony formation frequency: approximately 1 colony per 10,000 cells plated
[1]; primary cultures treated with DAPT vs untreated, FIG. 2B
  enhancement of colony formation: approximately ten-fold
Notch2
  appearance of gamma-secretase cleaved (active) form of Notch2 (ICD): absent
